Test results reported in the supplement of paper PMC11451515.

Tested on: SEM cells
Assay: cell viability relative to DMSO control; higher = less cytotoxic
Conditions: 48 h
How it was run: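 Library compounds in DMSO were pin-dosed in an 11-point threefold series (47 μM to 0.79 nM) onto leukemia cells in 1536-well plates (5 μl). Plates held 500 cells/well of NOMO1 or SEM or 1000 cells/well of P12-Ichikawa, each adapted for at least four passages in each medium. Luminescence was read with CellTiter-Glo One after 48 h at 37°C. Viability means the per-plate percentage relative to DMSO wells, using cell-free wells as background.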

[1] = HPLM + 10% dialyzed FBS, 0.000781 µM
[2] = HPLM + 10% dialyzed FBS, 0.00234 µM
[3] = HPLM + 10% dialyzed FBS, 0.00702 µM
[4] = HPLM + 10% dialyzed FBS, 0.0211 µM
[5] = HPLM + 10% dialyzed FBS, 0.0632 µM
[6] = HPLM + 10% dialyzed FBS, 0.19 µM
[7] = HPLM + 10% dialyzed FBS, 0.569 µM
[8] = HPLM + 10% dialyzed FBS, 1.71 µM
[9] = HPLM + 10% dialyzed FBS, 5.12 µM
[10] = HPLM + 10% dialyzed FBS, 15.4 µM
[11] = HPLM + 10% dialyzed FBS, 46.1 µM
[12] = RPMI 5 mM glucose + 10% dialyzed FBS, 0.000781 µM
[13] = RPMI 5 mM glucose + 10% dialyzed FBS, 0.00234 µM
[14] = RPMI 5 mM glucose + 10% dialyzed FBS, 0.00702 µM
[15] = RPMI 5 mM glucose + 10% dialyzed FBS, 0.0211 µM
[16] = RPMI 5 mM glucose + 10% dialyzed FBS, 0.0632 µM
[17] = RPMI 5 mM glucose + 10% dialyzed FBS, 0.19 µM
[18] = RPMI 5 mM glucose + 10% dialyzed FBS, 0.569 µM
[19] = RPMI 5 mM glucose + 10% dialyzed FBS, 1.71 µM
[20] = RPMI 5 mM glucose + 10% dialyzed FBS, 5.12 µM
[21] = RPMI 5 mM glucose + 10% dialyzed FBS, 15.4 µM
[22] = RPMI 5 mM glucose + 10% dialyzed FBS, 46.1 µM
[23] = RPMI 5 mM glucose + 10% FBS, 0.000781 µM
[24] = RPMI 5 mM glucose + 10% FBS, 0.00234 µM
[25] = RPMI 5 mM glucose + 10% FBS, 0.00702 µM
[26] = RPMI 5 mM glucose + 10% FBS, 0.0211 µM
[27] = RPMI 5 mM glucose + 10% FBS, 0.0632 µM
[28] = RPMI 5 mM glucose + 10% FBS, 0.19 µM
[29] = RPMI 5 mM glucose + 10% FBS, 0.569 µM
[30] = RPMI 5 mM glucose + 10% FBS, 1.71 µM
[31] = RPMI 5 mM glucose + 10% FBS, 5.12 µM
[32] = RPMI 5 mM glucose + 10% FBS, 15.4 µM
[33] = RPMI 5 mM glucose + 10% FBS, 46.1 µM

SMILES | cell viability [1] [%] | cell viability [2] [%] | cell viability [3] [%] | cell viability [4] [%] | cell viability [5] [%] | cell viability [6] [%] | cell viability [7] [%] | cell viability [8] [%] | cell viability [9] [%] | cell viability [10] [%] | cell viability [11] [%] | cell viability [12] [%] | cell viability [13] [%] | cell viability [14] [%] | cell viability [15] [%] | cell viability [16] [%] | cell viability [17] [%] | cell viability [18] [%] | cell viability [19] [%] | cell viability [20] [%] | cell viability [21] [%] | cell viability [22] [%] | cell viability [23] [%] | cell viability [24] [%] | cell viability [25] [%] | cell viability [26] [%] | cell viability [27] [%] | cell viability [28] [%] | cell viability [29] [%] | cell viability [30] [%] | cell viability [31] [%] | cell viability [32] [%] | cell viability [33] [%]
Clc1ccccc1C(c1ccccc1)(c1ccccc1)n1cccn1 | 104 | 121 | 119 | 123 | 113 | 130 | 118 | 124 | 126 | 107 | 121 | 124 | 129 | 124 | 130 | 138 | 121 | 124 | 122 | 137 | 122 | 144 |  |  |  |  |  |  |  |  |  |  | 
O=[S+]([O-])(/N=C/c1c(O)ccc2ccccc12)c1cccs1 | 97 | 114 | 101 | 109 | 110 | 110 | 112 | 66.8 | 104 | 88.3 | 81.9 | 98.7 | 136 | 109 | 112 | 131 | 118 | 115 | 79.5 | 98.2 | 91.1 | 98.7 | 113 | 116 | 108 | 106 | 113 | 120 | 102 | 74.3 | 93.3 | 94.5 | 68.5
NC(=O)c1cnc(-c2ccc(C3(N)CCC3)cc2)c(-c2ccccc2)c1 | 110 | 120 | 137 | 111 | 111 | 127 | 133 | 90.7 | 73.2 | 50.3 | 30.9 | 121 | 125 | 127 | 120 | 123 | 120 | 133 | 91.5 | 67 | 43.5 | 35.9 | 120 | 134 | 123 | 106 | 108 | 127 | 130 | 85.1 | 78 | 43.2 | 24.5
Cc1ccc(NC(=O)Nc2cc(C(F)(F)F)ccc2F)cc1Nc1ccc2c(c1)NC(=O)/C2=C\c1ccc[nH]1 | 108 | 131 | 121 | 115 | 118 | 127 | 131 | 120 | 111 | 87.6 | 16.2 | 120 | 116 | 122 | 111 | 138 | 139 | 124 | 124 | 102 | 76.2 | 4.96 |  |  |  |  |  |  |  |  |  |  | 
CN1\N=N/C2=C(N=C[N]2C1=O)C(N)=O | 112 | 114 | 132 | 111 | 121 | 88.2 | 60.9 | 57.7 | 51.2 | 38.7 | 25.3 | 105 | 115 | 139 | 116 | 113 | 78.7 | 58.7 | 37.4 | 31.9 | 28.9 | 20.5 | 85.8 | 102 | 106 | 86.2 | 88.5 | 67.7 | 47.6 | 50.6 | 41.9 | 28.4 | 24.1
NCCCC(O)(P(=O)(O)O)P(=O)(O)O.O.O.O.[Na+] | 141 | 106 | 118 | 120 | 122 | 118 | 125 | 110 | 71 | 56.6 | 15.4 | 125 | 111 | 133 | 118 | 122 | 113 | 110 | 116 | 37.5 | 27.9 | 7.61 | 124 | 125 | 109 | 130 | 112 | 122 | 99.3 | 101 | 22.5 | 16.6 | 6.56
COc1cccc(Nc2c(C(N)=O)cnc3c(C)cc([S+](=O)([O-])c4cccc(C(=O)N(C)C)c4)cc23)c1 | 119 | 113 | 134 | 130 | 114 | 128 | 144 | 126 | 128 | 134 | 126 | 123 | 130 | 119 | 129 | 150 | 142 | 158 | 146 | 135 | 128 | 118 | 124 | 123 | 123 | 136 | 141 | 137 | 142 | 134 | 138 | 137 | 119
CCN1\C=C(C(O)=O)/C(=O)C2=C1C=C(N3CCN(C)CC3)C(=C2)F | 107 | 112 | 98.6 | 117 | 104 | 115 | 129 | 105 | 109 | 110 | 96.7 | 107 | 114 | 108 | 107 | 95.6 | 108 | 106 | 83.6 | 106 | 109 | 91.8 | 108 | 112 | 128 | 116 | 107 | 120 | 105 | 117 | 108 | 107 | 103
NC/1=N/C(=O)N(C[C@@H](CO)OC[P](O)(O)=O)/C=C1 | 115 | 130 | 120 | 126 | 139 | 126 | 120 | 125 | 106 | 105 | 94.6 | 136 | 111 | 115 | 122 | 131 | 106 | 128 | 123 | 101 | 111 | 100 | 106 | 103 | 117 | 99.2 | 111 | 113 | 98.2 | 95.2 | 100 | 97.7 | 69.7
CO[C@H]1/C=C/O[C@@]2(C)Oc3c(C)c(O)c4c(O)c(c(/C=N/N5CCN(C)CC5)c(O)c4c3C2=O)NC(=O)/C(C)=C\C=C\[C@H](C)[C@H](O)[C@@H](C)[C@@H](O)[C@@H](C)[C@H](OC(C)=O)[C@@H]1C | 107 | 121 | 130 | 126 | 119 | 121 | 119 | 113 | 102 | 96.1 | 67 | 108 | 104 | 104 | 103 | 109 | 108 | 123 | 111 | 102 | 90.4 | 66.5 | 62.7 | 84.8 | 87.1 | 82.4 | 77.1 | 78.6 | 75.4 | 74.9 | 55 | 56 | 23.5
